# Reference: patent US12427134B2, “Methods of reducing the risk of cardiovascular events in a subject with atrial fibrillation and/or atrial flutter” (priority 2019, dated 2025)
# Where two headings read alike, the source gives them in different places.
# System: hypertriglyceridemic patients with cardiovascular disease or at high risk for cardiovascular disease
# Conditions: human, in vivo
# Procedure: The following clinical events that were positively adjudicated by the Clinical Endpoint Committee were analyzed as tertiary endpoints for the ITT intent-to-treat (ITT) population: • Composition of total mortality, or congestive heart failure (CHF); • Composite of CV death, or new CHF; • Sudden cardiac death; • Peripheral artery disease (PAD); and • Atrial fibrillation, or atrial flutter.
# Definition of Cardiac Arrhythmia Requiring Hospitalization: An arrhythmia that either results in hospitalization (≥24 hours) during or within 24 hours of the termination of the last episode for treatment or requires continued hospitalization for treatment, including any one of the following: • Atrial arrhythmia—atrial fibrillation, atrial flutter, supraventricular tachycardia that requires cardio-version, drug therapy, or is sustained for greater than 1 minute; • Ventricular arrhythmia—Ventricular tachycardia or ventricular fibrillation requiring cardio-version and/or intravenous antiarrhythmics; and/or • Bradyarrhythmia—High-level AV block (defined as third-degree AV block or second-degree AV block), junctional or ventricular escape rhythm, or severe sinus bradycardia (typically with heart rate <30 bpm). The bradycardia must require temporary or permanent pacing.
# The objective of the following study was to determine how icosapent ethyl affected the incidence of atrial fibrillation and/or flutter in patients from the REDUCE-IT trial, as described in Example 1.
# Although not pre-specified as TEAEs of special interest, atrial fibrillation and atrial flutter were also explored post hoc as potential safety signals as discussed above in Example 7. A summary of TEAEs and SAEs of atrial fibrillation/flutter is presented in Table 83, along with positively adjudicated atrial fibrillation/flutter requiring hospitalization of ≥24 hours as a comprehensive compilation of all documented post-randomization occurrences of these atrial arrhythmias. Occurrences of atrial fibrillation or flutter not meeting endpoint criteria (i.e., not positively adjudicated as endpoints) were counted as TEAEs or SAEs, per seriousness criteria.
compound,measurement,setting,value
"CC/C=C\C/C=C\C/C=C\C/C=C\C/C=C\CCCC(=O)OCC [AMR101, eicosapentaenoic acid ethyl ester]","Adjudicated as Bradycardia/Heart Block (without Hosp. ≥24 hrs), patients (%)",,(0.0) %
same,"Adjudicated as VTA/F (without Hosp. ≥24 hrs), patients (%)",,(0.0) %
same,"Atrial fibrillation TEAE, Event Rate",,5.3%
same,"Atrial fibrillation TEAE, Number of Subjects",,215
same,"Atrial fibrillation and/or flutter adverse events, SAEs",,0.5%
same,"Atrial fibrillation and/or flutter adverse events, TEAEs",,5.8%
same,"Atrial fibrillation or atrial flutter requiring hospitalization of ≥24 hours, patients with event",,3.1%
same,"Atrial fibrillation/flutter AEs, %",,(7.7) %
same,"Atrial fibrillation/flutter AEs, (%)",,5.8%
same,"Atrial fibrillation/flutter SAEs (not positively adjudicated as endpoints), patients",,0.6%
same,"Atrial fibrillation/flutter TEAEs (not positively adjudicated as endpoints), patients",,7.7%
same,Positively Adjudicated Atrial Fibrillation/Flutter (requiring hospitalization),,127 (3.1%) n (%)
same,"Positively adjudicated Afib/Aflutter requiring ≥24 hours hospitalization, (%)",,3.1%
same,"Positively adjudicated atrial fibrillation/flutter requiring ≥24 hours hospitalization, %",,(3.1) %
same,"Serious Afib/Aflutter AEs, (%)",,0.5%
same,"Serious atrial fibrillation/flutter AEs, %",,(0.6) %
same,Subjects with at least one Atrial Fibrillation/Atrial Flutter event,,321
same,"Treatment-emergent atrial fibrillation (Serious), Event Rate",,0.5%
same,"Treatment-emergent atrial fibrillation (Serious), Number of Subjects",,21
same,"Treatment-emergent atrial fibrillation, Event Rate",,5.3%
same,"Treatment-emergent atrial fibrillation, Number of Subjects",,215
same,"Treatment-emergent atrial flutter (Serious), Event Rate",,0.0%
same,"Treatment-emergent atrial flutter (Serious), Number of Subjects",,1
same,"Treatment-emergent atrial flutter, Event Rate",,0.8%
same,"Treatment-emergent atrial flutter, Number of Subjects",,32
same,"First onset of atrial fibrillation and/or flutter, Icosapent Ethyl-Placebo Risk Diff., % (95% CI)",0.5 years,−0.00%
same,"First onset of atrial fibrillation and/or flutter, Icosapent Ethyl-Placebo Risk Diff., % (95% CI)",1 year,0.20%
same,"First onset of atrial fibrillation and/or flutter, Icosapent Ethyl-Placebo Risk Diff., % (95% CI)",1.5 years,0.51%
same,"First onset of atrial fibrillation and/or flutter, Icosapent Ethyl-Placebo Risk Diff., % (95% CI)",2 years,0.59%
same,"First onset of atrial fibrillation and/or flutter, Icosapent Ethyl-Placebo Risk Diff., % (95% CI)",2.5 years,0.78%
same,"First onset of atrial fibrillation and/or flutter, Icosapent Ethyl-Placebo Risk Diff., % (95% CI)",3 years,0.83%
same,"First onset of atrial fibrillation and/or flutter, Icosapent Ethyl-Placebo Risk Diff., % (95% CI)",3.5 years,1.17%
same,"First onset of atrial fibrillation and/or flutter, Icosapent Ethyl-Placebo Risk Diff., % (95% CI)",4 years,1.23%
same,"First onset of atrial fibrillation and/or flutter, Icosapent Ethyl-Placebo Risk Diff., % (95% CI)",4.5 years,1.00%
same,"First onset of atrial fibrillation and/or flutter, Icosapent Ethyl-Placebo Risk Diff., % (95% CI)",5 years,1.08%
same,"First onset of atrial fibrillation and/or flutter, Icosapent Ethyl-Placebo Risk Diff., % (95% CI)",5.5 years,1.00%
same,"Positively adjudicated atrial fibrillation and/or flutter, incidence",6 months,0.3%
same,"First onset of atrial fibrillation and/or flutter, Icosapent Ethyl-Placebo Risk Diff., % (95% CI)",6 years,2.07%
